Patent publication US20180344768A1, “NK CELL-BASED THERAPY” (Onkimmune Limited, priority 2016, published 2018)
Like-named read-outs stand apart in the source and are kept apart here.

Experiments:
MM1.S cells [1] = assay: Bortezomib-induced sensitization of MM1.S cells to KHYG-1 cells expressing TRAIL variant; format: cell-based; conditions: MM1.S pretreated with 2.5 nM for 24 hours, 1:1 ratio, 12 hours co-culture
Experimental: (2) 6 hours after electroporation of TRAIL variant mRNA, KHYG-1 cells were then cultured with MM cells in 12-well plate. After washing, cell concentrations were adjusted to 1×10^6/mL, before mixing KHYG-1 and MM1.S cells at 1:1 ratio to culture for 12 hours. (3) Flow cytometric analysis of the cytotoxicity of KHYG-1 cells was carried out. The co-cultured cells were collected, washed and then stained with CD2-APC antibody (5 uL/test), AnnexinV-FITC (5 uL/test) and SYTOX-Green (5 uL/test) using AnnexinV binding buffer. (4) Data were further analyzed using FlowJo 7.6.2 software. CD2-negative population represents MM.1S cells. KHYG-1 cells are strongly positive for CD2. Finally, the AnnexinV-FITC and SYTOX-Green positive cells in the CD2-negative population were analyzed.

DR5 [2] = conditions: 24 hours
Experimental: Bortezomib was bought from Millennium Pharmaceuticals. Mouse anti-human DR5-AF647 (catalog number: 565498) was bought from BD Pharmingen. The stained cell samples were analyzed on BD FACS Canto II.

KHYG-1 cells = assay: KHYG-1 cell viability after CMA treatment; format: cell-based; conditions: 100 nM CMA or vehicle
perforin = assay: CMA-induced reduction of perforin expression in KHYG-1 cells; format: cell-based, human; conditions: 100 nM for 2 hours
Experimental: Mouse anti-human perforin-AF647 (catalog number: 563576) was bought from BD Pharmingen. Concanamycin A (catalog number: SC-202111) was bought from Santa Cruz Biotechnology. The stained cell samples were analyzed using a BD FACS Canto II. […] (2) KHYG-1 cells (6 hours after electroporation, cultured in penicillin/streptomycin free RPMI1640 medium) were further treated with 100 nM CMA or equal volume of vehicle (DMSO) for 2 hours. (3) The cells were collected (1×10^6 cells/test) by centrifugation (1500 rpm×5 minutes) and the supernatant was aspirated. (4) The cells were fixed in 4% paraformaldehyde in PBS solution at room temperature for 15 minutes. (5) The cells were washed with 4 mL of FACS Buffer (PBS, 0.5-1% BSA, 0.1% sodium azide) twice. (6) The cells were permeabilized with 1 mL of PBS/0.1% saponin buffer for 30 minutes at room temperature. (7) The cells were washed with 4 mL of PBS/0.1% saponin buffer. (8) The cells were re-suspended in 100 uL of PBS/0.1% saponin buffer, before adding 5 uL of the antibody to each tube and incubating for 30 minutes on ice. (9) The cells were washed with PBS/0.1% saponin buffer 3 times by centrifugation at 1500 rpm for 5 minutes. (10) The cells were re-suspended in 500 uL of ice cold FACS Buffer and kept in the dark on ice or at 4° C. in a fridge briefly until analysis. (11) The cells were analyzed on the flow cytometer (BD FACS Canto II). […]

MM1.S cells [3] = assay: Cytotoxicity of KHYG-1 cells with/without TRAIL variant in the presence of CMA; format: cell-based; conditions: 100 mM CMA for 2 hours, 1:1 ratio, 12 hours
Experimental: KHYG-1 cells were transfected with the TRAIL variant (TRAIL D269H/E195R), as described above in Example 6. (1) MM1.S cells were used as target cells. (2) 6 hours after electroporation of TRAIL mRNA, KHYG-1 cells were treated with […] CMA or an equal volume of vehicle for 2 hours. […] (5) The KHYG-1 and MM1.S cells were mixed at 1:1 ratio and co-cultured for 12 hours. (6) Flow cytometric analysis of the cytotoxicity of KHYG-1 cells was carried out. The co-cultured cells were washed and stained with CD2-APC antibody (5 uL/test). (7) After washing, further staining was performed with AnnexinV-FITC (5 uL/test) and SYTOX-Green (5 uL/test) using AnnexinV binding buffer. (8) Data were further analyzed using FlowJo 7.6.2 software. CD2-negative population represents MM1.S cells. KHYG-1 cells are strongly positive for CD2. The AnnexinV-FITC and SYTOX-Green positive cells in CD2-negative population were then analyzed.

decoy receptor DcR1 = molecular target: T1, decoy receptor DcR1 (Homo sapiens, UniProt O14798); conditions: surface plasmon resonance; cited from earlier work
T1 sequence (O14798 26-236): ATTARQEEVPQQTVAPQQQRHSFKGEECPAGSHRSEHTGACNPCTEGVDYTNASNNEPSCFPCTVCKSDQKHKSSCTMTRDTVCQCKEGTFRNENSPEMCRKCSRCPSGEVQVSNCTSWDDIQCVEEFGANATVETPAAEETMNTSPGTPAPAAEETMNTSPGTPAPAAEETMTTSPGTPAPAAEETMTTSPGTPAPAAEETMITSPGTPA

DR4 = DR4 (Homo sapiens, UniProt O00220); conditions: surface plasmon resonance; cited from earlier work
CTLA4 gene = assay: gRNA cleavage activity, T7E1 mismatch detection assay in K562 cells; format: cell-based, human; conditions: CRISPR/Cas9, agarose gel after T7E1
Text: (§1) Two gRNA candidates were selected for each target gene and their cleavage efficacies in K562 cells determined. The sequences of the gRNA candidates are shown in Table 1 and the Protospacer Adjacent Motif (PAM) relates to the last 3 bases of the sequence. The flanking regions of the gRNA sequences on the LIR2 gene (SEQ ID NO: 1; amino acid translation SEQ ID NO: 2) and the CTLA4 gene (SEQ ID NO: 7; amino acid translation SEQ ID NO: 8) are shown in FIGS. 1 and 2, respectively.
(§2) K562 cells were transfected with the prepared gRNA constructs (FIG. 3) and subsequently harvested for PCR amplification. The presence of GFP expression was used to report successful incorporation of the gRNA construct into the K562 cells. This confirmed expression of the Cas9 gene and therefore the ability to knock out expression of the LIR2 and CTLA4 genes.
(§3) The cleavage activity of the gRNA constructs was determined using an in vitro mismatch detection assay. T7E1 endonuclease I recognizes and cleaves non-perfectly matched DNA, allowing the parental LIR2 and CTLA4 genes to be compared to the mutated genes following CRISPR/Cas9 transfection and non-homologous end joining (NHEJ).

LIR2 gene = assay: as above; format: cell-based, human; conditions: CRISPR/Cas9, agarose gel after T7E1
Text: as §1, §2, §3
The three bands corresponding to each mutation relate to the parental gene and the two resulting strands following detection of a mismatch in the DNA sequence after transfection.

DcR2 = molecular target: T2, DcR2 (Homo sapiens, UniProt Q9UBN6); conditions: D269H/E195R mutation vs wildtype TRAIL; cited from earlier work
T2 sequence (Q9UBN6 56-386): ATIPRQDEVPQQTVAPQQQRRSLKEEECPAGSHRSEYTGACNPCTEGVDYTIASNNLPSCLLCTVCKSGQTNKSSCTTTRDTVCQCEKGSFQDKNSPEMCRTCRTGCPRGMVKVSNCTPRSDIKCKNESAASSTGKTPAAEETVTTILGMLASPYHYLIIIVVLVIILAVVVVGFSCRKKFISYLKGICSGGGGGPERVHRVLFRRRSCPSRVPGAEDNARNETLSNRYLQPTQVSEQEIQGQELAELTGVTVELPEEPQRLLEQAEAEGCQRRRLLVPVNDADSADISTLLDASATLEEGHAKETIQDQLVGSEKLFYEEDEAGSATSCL

DcR1 = molecular target: T3, DcR1 (Homo sapiens, UniProt O14798); conditions: D269H/E195R mutation vs wildtype TRAIL; cited from earlier work
T3 sequence (O14798 26-236): T1 sequence (O14798 26-236)

DR5 [4] = molecular target: DR5 (Homo sapiens, UniProt O14763); conditions: D269H/E195R mutation vs wildtype TRAIL; cited from earlier work

CC(C)C[C@H](NC(=O)[C@H](Cc1ccccc1)NC(=O)c1cnccn1)B(O)O [Bortezomib]
sensitivity of MM cells to KHYG-1 cells expressing the TRAIL variant (MM1.S cells [1]): induced sensitivity | DR5 expression (DR5 [2]; MM1.S cells, low dose): increase | DR5 expression (DR5 [2]; MM cells, high doses): could not be upregulated | DR5 expression (DR5 [2]; RPMI8226 cells, low dose): increase

C/C=C/[C@H]1O[C@@](O)([C@@H](C)[C@H](O)[C@H](C)[C@H]2OC(=O)/C(OC)=C/C(C)=C/[C@@H](C)[C@@H](O)[C@@H](CC)[C@@H](O)[C@H](C)C/C(C)=C/C=C/[C@@H]2OC)C[C@@H](O[C@H]2C[C@@H](O)[C@H](OC(N)=O)[C@@H](C)O2)[C@@H]1C [CMA, Concanamycin A]
viability of KHYG-1 cells (KHYG-1 cells): no negative effects | perforin expression level (perforin): significantly decreased | effect of CMA on cytotoxic activity of NK cells expressing TRAIL variant (MM1.S cells [3]): unable to significantly diminish

Wildtype TRAIL: wildtype TRAIL ligand (CD253)
Kd (decoy receptor DcR1): > 20 nM | Kd (DR4): > 2 nM

g7 gRNA: gRNA candidate targeting hCTLA4, CACTCACCTTTGCAGAAGACAGG (SEQ ID NO: 9) (expressed or natural sequence; listed as Homo sapiens)
gRNA cleavage efficiency at CTLA4 (T7E1) (CTLA4 gene): 32%

g9 gRNA: gRNA candidate targeting hLIR2, GAGTCACAGGTGGCATTTGGCGG (SEQ ID NO: 3) (expressed or natural sequence; listed as Homo sapiens)
gRNA cleavage efficiency (LIR2 knockout) (LIR2 gene): 11%

g15 gRNA: gRNA candidate targeting hCTLA4, CCTTGTGCCGCTGAAATCCAAGG (SEQ ID NO: 10) (expressed or natural sequence; listed as Homo sapiens)
gRNA cleavage efficiency at CTLA4 (T7E1) (CTLA4 gene): 26%

g18 gRNA: gRNA candidate targeting hLIR2, CGAATCGCAGGTGGTCGCACAGG (SEQ ID NO: 4) (expressed or natural sequence; listed as Homo sapiens)
gRNA cleavage efficiency (LIR2 knockout) (LIR2 gene): 10%

B1: TRAIL variant: described in WO 2009/077857; encoded by the wildtype TRAIL gene containing the D269H/E195R mutation (protein)
chain: MAMMEVQGGPSLGQTCVLIVIFTVLLQSLCVAVTYVYFTNELKQMQDKYSKSGIACFLKEDDSYWDPNDEESMNSPCWQVKWQLRQLVRKMILRTSEETISTVQEKQQNISPLVRERGPQRVAAHITGTRGRSNTLSSPNSKNEKALGRKINSWESSRSGHSFLSNLHLRNGELVIHEKGFYYIYSQTYFRFQERIKENTKNDKQMVQYIYKYTSYPDPILLMKSARNSCWSKDAEYGLYSIYQGGIFELKENDRIFVSVTNEHLIDMHHEASFFGAFLVG
affinity for decoy receptor DcR2 (DcR2): reducing the affinity | affinity for decoy receptor DcR1 (DcR1): reducing the affinity | affinity for DR5 (DR5 [4]): significantly increases the affinity
